Measured values reported in article PMC9147192, “Small Molecule Arranged Thermal Proximity Coaggregation (smarTPCA)—A Novel Approach to Characterize Protein–Protein Interactions in Living Cells by Similar Isothermal Dose–Responses” (International Journal of Molecular Sciences, 2022).

Legend:
Assay in all cases: TPP-CCR in living HL-60 cells
MAPK14 = MAPK14 (Homo sapiens, UniProt Q16539); conditions: […] °C, TMT-MS
MTMR1 = MTMR1 (Homo sapiens, UniProt Q13613)
UGGT1 = molecular target: T1, UGGT1 (Homo sapiens, UniProt Q9NYU2); type: cell-based
T1 construct: endogenous in cells; host or cells: HL-60 (ATCC CCL-240)
T1 sequence (Q9NYU2 43-1555): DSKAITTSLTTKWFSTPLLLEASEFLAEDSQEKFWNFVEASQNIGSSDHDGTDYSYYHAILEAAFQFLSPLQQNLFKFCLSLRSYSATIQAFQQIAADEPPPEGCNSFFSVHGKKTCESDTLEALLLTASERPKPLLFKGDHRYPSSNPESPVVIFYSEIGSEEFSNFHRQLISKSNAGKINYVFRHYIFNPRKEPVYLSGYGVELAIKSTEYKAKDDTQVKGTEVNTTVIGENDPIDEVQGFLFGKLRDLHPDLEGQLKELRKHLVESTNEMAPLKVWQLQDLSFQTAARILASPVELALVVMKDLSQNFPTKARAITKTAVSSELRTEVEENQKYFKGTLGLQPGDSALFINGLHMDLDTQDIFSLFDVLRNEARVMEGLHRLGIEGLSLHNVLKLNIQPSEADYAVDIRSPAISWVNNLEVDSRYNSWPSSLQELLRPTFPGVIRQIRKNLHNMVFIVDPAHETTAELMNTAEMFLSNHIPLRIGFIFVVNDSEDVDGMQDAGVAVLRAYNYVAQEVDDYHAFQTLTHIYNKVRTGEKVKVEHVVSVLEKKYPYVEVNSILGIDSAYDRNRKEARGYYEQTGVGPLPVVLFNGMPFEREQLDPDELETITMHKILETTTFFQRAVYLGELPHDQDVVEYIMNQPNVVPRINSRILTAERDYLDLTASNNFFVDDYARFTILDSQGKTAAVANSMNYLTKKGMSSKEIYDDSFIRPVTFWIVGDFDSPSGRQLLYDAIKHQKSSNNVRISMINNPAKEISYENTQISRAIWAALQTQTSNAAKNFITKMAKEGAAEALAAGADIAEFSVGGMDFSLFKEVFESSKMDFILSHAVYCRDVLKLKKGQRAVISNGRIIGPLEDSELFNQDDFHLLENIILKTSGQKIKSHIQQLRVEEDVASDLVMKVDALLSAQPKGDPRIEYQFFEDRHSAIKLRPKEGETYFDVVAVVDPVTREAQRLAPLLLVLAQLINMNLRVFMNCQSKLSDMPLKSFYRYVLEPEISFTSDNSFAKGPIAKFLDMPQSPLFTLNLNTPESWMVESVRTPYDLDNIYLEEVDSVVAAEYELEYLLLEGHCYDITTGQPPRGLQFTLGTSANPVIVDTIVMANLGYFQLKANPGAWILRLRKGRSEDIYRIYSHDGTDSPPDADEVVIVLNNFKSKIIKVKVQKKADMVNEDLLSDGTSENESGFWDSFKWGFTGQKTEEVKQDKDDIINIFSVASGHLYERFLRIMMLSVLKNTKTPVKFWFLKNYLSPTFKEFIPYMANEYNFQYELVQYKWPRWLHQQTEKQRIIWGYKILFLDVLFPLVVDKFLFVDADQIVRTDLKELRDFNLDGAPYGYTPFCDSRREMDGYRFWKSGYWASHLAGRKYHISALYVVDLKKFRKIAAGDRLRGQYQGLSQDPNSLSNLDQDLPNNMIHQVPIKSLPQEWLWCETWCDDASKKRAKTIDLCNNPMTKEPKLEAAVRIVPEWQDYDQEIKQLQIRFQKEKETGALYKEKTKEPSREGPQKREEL

PDCD4 = molecular target: T2, PDCD4 (Homo sapiens, UniProt Q53EL6); type: cell-based
T2 construct: endogenous in cells; host or cells: HL-60 (ATCC CCL-240)
T2 sequence (Q53EL6 1-469): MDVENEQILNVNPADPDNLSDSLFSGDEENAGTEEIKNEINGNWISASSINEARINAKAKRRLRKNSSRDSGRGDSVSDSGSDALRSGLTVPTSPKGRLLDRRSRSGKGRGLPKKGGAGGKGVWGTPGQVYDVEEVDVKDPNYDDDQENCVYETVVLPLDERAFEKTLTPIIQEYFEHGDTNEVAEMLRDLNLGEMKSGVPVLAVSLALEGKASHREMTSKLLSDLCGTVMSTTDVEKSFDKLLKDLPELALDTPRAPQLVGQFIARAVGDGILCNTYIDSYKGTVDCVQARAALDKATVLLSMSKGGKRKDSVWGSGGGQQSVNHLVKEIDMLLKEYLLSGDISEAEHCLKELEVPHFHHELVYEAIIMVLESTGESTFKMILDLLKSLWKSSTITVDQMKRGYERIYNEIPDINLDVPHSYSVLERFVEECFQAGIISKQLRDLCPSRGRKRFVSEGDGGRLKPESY

[1] = living HL-60 cells, […] °C, TMT-MS

Chain of MAPK14 (Q16539 whole entry): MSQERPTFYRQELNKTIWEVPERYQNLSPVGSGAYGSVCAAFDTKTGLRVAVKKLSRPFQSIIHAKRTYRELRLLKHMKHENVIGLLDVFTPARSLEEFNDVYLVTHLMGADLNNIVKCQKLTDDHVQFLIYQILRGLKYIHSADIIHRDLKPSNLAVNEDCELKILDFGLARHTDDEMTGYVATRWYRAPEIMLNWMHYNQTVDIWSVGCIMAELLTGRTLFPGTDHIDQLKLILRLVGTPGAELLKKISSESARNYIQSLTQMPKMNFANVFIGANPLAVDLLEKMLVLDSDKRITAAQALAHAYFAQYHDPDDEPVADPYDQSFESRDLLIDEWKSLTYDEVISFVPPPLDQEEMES

Row | Compound | Hill slope (MAPK14) (MAPK14) | EC50 (MTMR1) [µM] | Hill slope (MTMR1) (MTMR1; [1]) | Hill slope (UGGT1; TPP-CCR, living cells, UGGT1) | Hill slope (UGGT1) (UGGT1; [1]) | EC50 (UGGT1; living HL-60 cells, […] °C, TMT-MS, read-out: pEC50 (UGGT1) (converted)) [µM] | Hill slope (PDCD4; TPP-CCR, living cells, PDCD4) | Hill slope (PDCD4) (PDCD4; [1]) | EC50 (PDCD4; living HL-60 cells, […] °C, TMT-MS, read-out: pEC50 (PDCD4) (converted)) [µM]
1 | Cn1c(NC[C@@H](N)Cc2ccccc2)nc(-c2ccncc2)c(-c2ccc3ccccc3c2)c1=O [AMG-548] | 0.57 | 0.105 | 0.38 |  |  |  |  |  | 
2 | Cc1cnc(Nc2ccc(F)cc2Cl)nc1-c1c[nH]c(C(=O)N[C@H](CO)c2cccc(Cl)c2)c1 [ERK 11e] |  |  |  | 1.97 | 1.97 | 5.37 | 0.69 | 0.69 | 1.05
